Experimental data from article PMC9019904, “AD Informer Set: Chemical tools to facilitate Alzheimer's disease drug discovery” (Alzheimer's & Dementia : Translational Research & Clinical …, 2022).
Converted amounts (≈) assume the structure as drawn. Like-named read-outs stand apart in the source and are kept apart here.

What was measured:
[1] = test system: BV2 (mouse microglia) cell line; assay: pHrodo-myelin phagocytosis/cell viability high content imaging assay: phagocytosis signal; format: cell-based
How it was run: (§1)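 Simultaneous phagocytosis/viability imaging at approximately 22 h after adding pHrodo-myelin. Rising intensity flagged early apoptosis and falling intensity later apoptosis.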

[2] = test system: protein product expressed by the gene target; settings: cited from earlier work
[3] = physchem; settings: pH 7.4, aqueous buffer, kinetic from dmso stock
[4] = test system: cellular system; settings: cited from earlier work
[5] = test system: BV2 (mouse microglia) cell line; assay: pHrodo-myelin phagocytosis/cell viability high content imaging assay: viability (cell count, nuclear area, nuclear intensity)
How it was run: (§2)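 BV2 mouse and HMC3 human microglia were treated with compounds at 10 μM for 48 h, with pHrodo-myelin present for the last 20 h. Viability was imaged as total cell count per well and mean nuclear intensity per cell. Values are means of duplicates, normalized to untreated wells as % control.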

[6] = test system: HMC3 (human microglia) cell line; assay: pHrodo-myelin phagocytosis/cell viability high content imaging assay: phagocytosis signal; format: cell-based
How it was run: as §1

[7] = test system: HMC3 (human microglia) cell line; assay: pHrodo-myelin phagocytosis/cell viability high content imaging assay: viability (cell count, nuclear area, nuclear intensity); settings: HMC3, 10 μM
How it was run: as §2

[8] = Kinetic solubility in aqueous buffer pH 7.4 by total chemiluminescent nitrogen determination (Analiza); settings: aqueous buffer, pH 7.4, aqueous buffer, kinetic from dmso stock
[9] = published cellular activity at 10 μM
[10] = BV2 cells, 10 μM, cell count <70% control

For `CN(C)CC1CCOC1(c1ccccc1)c1ccccc1.Cl` (stereo not drawn) [AN2/AVex-73 HCl (Blarcamesine)], the “Stimulation of mouse microglial phagocytosis at 10 μM (>150% control)” value ([1]; BV2 cells, 10 μM) is given as “Y (The compound was found to stimulate phagocytosis (response threshold: >150% control) when murine immortalized microglial cells were dosed at 10 μM (Y: yes))”, the “Reported on-target biochemical potency (nM)” value ([2]; SIG-1R (genes listed: SIG-1R and CHRM2), ref PubMed 20829307, 29127580) is given as “SIG-1R = 860 nM” and the solubility kinetic [3] is given as 174 µM. The “Reported as cell active (<10 μM)” value [4, 9] was “Y (Published data supports that the compound is active in a cellular system when dosed at 10 μM (Y/N))”.
For `CC(C)CCOc1ccc(N)cc1` [CP-24879], the “Reported on-target biochemical potency” value ([2]; gene target FADS1 and FADS2, ref PubMed 11939906, 27832159, 9605428) is given as 3400 nM and the solubility kinetic [3] is given as 56.8 µM (≈ 10.2 µg/mL).
For `CN(C)CCCN1c2ccccc2Sc2ccc(Cl)cc21` [Chlorpromazine], the “Reported on-target biochemical potency” value [2] is given as >1000 nM, the solubility kinetic [3] is given as 102 µM (≈ 32.6 µg/mL) and the “Reported as cell active (<10 μM)” value [4] is given as “N”.
In the case of `Clc1ccccc1C(c1ccccc1)(c1ccccc1)n1ccnc1` [Clotrimazole], the “Mouse microglial cytotoxicity at 10 μM (<70% control)” value ([5]; BV2, 10 μM) is listed as “Y (The compound was found to be cytotoxic (cell count threshold: <70% control) when murine immortalized microglial cells were dosed at 10 μM (Y: yes))”, the “Reported on-target biochemical potency” value ([2]; gene target CYP19A1, ref Probe Miner) is listed as 1.8 nM and the solubility kinetic [3] is listed as 4.2 µM (≈ 1.45 µg/mL).
With `CCc1cnn2c(NCc3ccc[n+]([O-])c3)cc(N3CCCC[C@H]3CCO)nc12` [Dinaciclib] the “Inhibition of mouse microglial phagocytosis at 10 μM (<70% control)” value ([1]; BV2, 10 μM) was “Y (The compound was found to inhibit phagocytosis (response threshold: <70% control) when murine immortalized microglial cells were dosed at 10 μM (Y: yes))”, the “Stimulation of human microglial phagocytosis at 10 μM (>150% control)” value ([6]; HMC3, 10 μM) was “Y (The compound was found to stimulate phagocytosis (response threshold: >150% control) when human immortalized microglial cells were dosed at 10 μM (Y: yes))” and the “Mouse microglial cytotoxicity at 10 μM (<70% control)” value ([5]; BV2, 10 μM) was “Y (The compound was found to be cytotoxic (cell count threshold: <70% control) when murine immortalized microglial cells were dosed at 10 μM (Y: yes))”. The “Human microglial cytotoxicity at 10 μM (<70% control)” value [7] was “Y (The compound was found to be cytotoxic (cell count threshold: <70% control) when human immortalized microglial cells were dosed at 10 μM (Y: yes))”, the “Reported on-target biochemical potency” value ([2]; gene target CDK9, ref PubMed 20663931, 25289887, 21768779) was 4 nM and the solubility kinetic [3] was 143 µM (≈ 56.8 µg/mL).
With `Cl.NCCOCCOCCNC(=O)Cc1ccc(Nc2nc(NCc3ccc(F)cc3)nc(NCC3CCCCC3)n2)cc1` [ENOblock (AP-III-a4)] the “Stimulation of mouse microglial phagocytosis at 10 μM (>150% control)” value ([1]; BV2, 10 μM) was “Y (The compound was found to stimulate phagocytosis (response threshold: >150% control) when murine immortalized microglial cells were dosed at 10 μM (Y: yes))”, the “Inhibition of human microglial phagocytosis at 10 μM (<70% control)” value ([6]; HMC3, 10 μM) was “Y (The compound was found to inhibit phagocytosis (response threshold: <70% control) when human immortalized microglial cells were dosed at 10 μM (Y: yes))” and the “Mouse microglial cytotoxicity at 10 μM (<70% control)” value ([5]; BV2, 10 μM) was “Y (The compound was found to be cytotoxic (cell count threshold: <70% control) when murine immortalized microglial cells were dosed at 10 μM (Y: yes))”. The “Reported on-target biochemical potency” value ([2]; gene target ENO1, ref Probe Miner, PubMed 30679508, 28272459) was 576 nM and the solubility kinetic [3] was 76.8 µM.
With `c1cn2cc(-c3ccc4cn[nH]c4c3)nc(Nc3ccc(N4CCOCC4)cc3)c2n1` [Entospletinib (GS-9973)] the “Inhibition of mouse microglial phagocytosis at 10 μM (<70% control)” value ([1]; BV2 cells, 10 μM) was “Y (The compound was found to inhibit phagocytosis (response threshold: <70% control) when murine immortalized microglial cells were dosed at 10 μM (Y: yes))”, the “Inhibition of human microglial phagocytosis at 10 μM (<70% control)” value ([6]; HMC3 cells, 10 μM) was “Y (The compound was found to inhibit phagocytosis (response threshold: <70% control) when human immortalized microglial cells were dosed at 10 μM (Y: yes))” and the “Mouse microglial cytotoxicity at 10 μM (<70% control)” value [5, 10] was “Y (The compound was found to be cytotoxic (cell count threshold: <70% control) when murine immortalized microglial cells were dosed at 10 μM (Y: yes))”. The “Reported on-target biochemical potency” value [2] was 7.7 nM, the solubility kinetic [3] was 0.5 µM (≈ 0.206 µg/mL) and the “Reported as cell active (<10 μM)” value [4, 9] was “Y (Published data supports that the compound is active in a cellular system when dosed at 10 μM (Y/N))”.
For `CNC(=O)[C@H](Cc1c[nH]c2ccccc12)NC(=O)[C@@H](CC(=O)NO)CC(C)C` [Ilomastat], the “Reported on-target biochemical potency” value ([2]; target gene MMP17, ref Probe Miner, PubMed 33513143) is listed as 3.4 nM and the solubility kinetic [3] is listed as 104 µM (≈ 40.2 µg/mL).
In the case of `COCC(=O)O[C@]1(CCN(C)CCCc2nc3ccccc3[nH]2)CCc2cc(F)ccc2[C@@H]1C(C)C` [Mibefradil], the “Inhibition of mouse microglial phagocytosis at 10 μM (<70% control)” value ([1]; BV2 cells, 10 μM) is reported as “Y (The compound was found to inhibit phagocytosis (response threshold: <70% control) when murine immortalized microglial cells were dosed at 10 μM (Y: yes))”, the “Inhibition of human microglial phagocytosis at 10 μM (<70% control)” value ([6]; HMC3 cells, 10 μM) is reported as “Y (The compound was found to inhibit phagocytosis (response threshold: <70% control) when human immortalized microglial cells were dosed at 10 μM (Y: yes))” and the “Mouse microglial cytotoxicity at 10 μM (<70% control)” value [5, 10] is reported as “Y (The compound was found to be cytotoxic (cell count threshold: <70% control) when murine immortalized microglial cells were dosed at 10 μM (Y: yes))”. The “Reported on-target biochemical potency” value [2] was 980 nM, the “Reported as cell active (<10 μM)” value [4] was “Y (key: Published data supports that the compound is active in a cellular system when dosed at 10 μM (Y/N); Published data supports that the compound is active in a cellular system when dosed at 10 μM (Y/N))” and the solubility kinetic [8] was 128 µM (≈ 63.4 µg/mL).
In the case of `CCN(C)C(=O)Oc1cccc([C@H](C)N(C)C)c1` [Rivastigmine], the “Stimulation of mouse microglial phagocytosis at 10 μM (>150% control)” value ([1]; BV2, 10 μM) is listed as “Y (The compound was found to stimulate phagocytosis (response threshold: >150% control) when murine immortalized microglial cells were dosed at 10 μM (Y: yes))”, the “Reported on-target biochemical potency (nM): BChE” value ([2]; gene target BCHE, ref PubMed 23469045, 12166941) is listed as 37 nM and the solubility kinetic [3] is listed as 160 µM (≈ 40 µg/mL).
In the case of `COc1ccc2[nH]c([S+]([O-])Cc3ncc(C)c(OC)c3C)nc2n1` (stereo not drawn) [Tenatoprazole], the “Reported on-target biochemical potency” value ([2]; gene target DHTKD1, ref PubMed 32633484) is listed as 2700 nM and the solubility kinetic [3] is listed as 131 µM (≈ 45.4 µg/mL).
